Experiments:
[1] = system: normal human lung fibroblasts (NHLF); assay: α-thrombin-induced calcium mobilization in fibroblasts; assay type: cell-based
Experimental: The second assay developed to assess peptides from the combinatorial libraries uses inhibition of α-thrombin-induced calcium mobilization in fibroblasts. Normal human lung fibroblasts (NHLF) were purchased from Clonetics, San Diego, Calif., an affiliate of Bio-Wittaker, Walkersville, Md. The cytoplasmic free Ca^2+ concentration ([Ca^2+]i) was measured using the fluorescent Ca^2+ indicator fura-2 (Molecular Probes, Inc., Eugene, Oreg.). Suspension of fibroblasts in Hepes-Tyrode's buffer were loaded with fura-2 by incubation at 37° C. with 2 μM fura-2/acetoxymethyl ester for 45 minutes according to the method of Rasmussen et al., J. Biol. Chem. 268, 14322 (1993). The labeled fibroblasts were separated from excess probe by washing by centrifugation at 1000 rpm (180×g). Aliquots of the labeled fibroblasts were transferred into a quartz cuvette with a magnetic stirrer, which was then placed in a thermostatically controlled chamber at 37° C. in a fluorescence spectrophotometer (Perkin-Elmer LS50B spectrofluorometer, Chicago, Ill.). Reagents, test peptide, and α-thrombin (0.25–2 nM), were sequentially added directly to the cuvette. The excitation wavelengths varied between 340 and 380 nm. Fluorescence was measured by recording emitted light at 510 nm as reported by Fisher et al., Mol Pharm. 35, 195 (1989). The minimum emission was determined on a solubilized fibroblast sample in the presence of 10 mM EDTA; maximum emission was determined on the same sample with 10 mM Ca^2+ added. The intrafibroblast free Ca^2+ concentration was calculated by the method of Grykiewicz et al., J. Biol. Chem. 260, 3440 (1985). […] The KD for fura-2 was assumed to be 224 nM. Rmax and Rmin are the maximum and minimum fluorescence ratios measured at the end of the experiment, respectively; Sf2 and Sb2 are the fluorescence values at 380 nm in the absence and presence of saturating [Ca^2+], respectively. The reaction was monitored for 3–5 minutes.

[2] = system: normal human citrated plasma; assay: prothrombin time (PT); assay type: biochemical; settings: normal human plasma; p<0.05
Experimental: The influence of the various peptide formulations used in the present invention on established coagulation-based assays was determined. The activated partial thromboplastin time (APTT) is performed by mixing 0.05 ml normal human citrated plasma with 0.05 ml activated partial thromboplastin reagent purchased from Organon Teknika, Research Triangle Park, N.C. in the absence or presence of a peptide inhibitor. After incubation for 5 min at 37° C., the mixture is recalcified with 0.05 ml of 30 mM calcium chloride and the time to clot formation is measured in an Amelung KC4A instrument (Sigma Chemical Corp, St. Louis, Mo.) (Hasan et al. Thrombosis and Haemostasis. 82, 1182–1187 (1999)). The prothrombin time (PT) is performed by mixing 0.05 ml normal human citrated plasma with 0.05 ml Simplastin (Organon Teknika, Research Triangle Park, N.C.) followed by incubation for 3 min at 37° C. in the absence or presence of a peptide inhibitor. At the addition of 0.05 ml of 30 mM calcium chloride, the time to clot formation is measured in an KC4A instrument (Sigma Chemical Corp, St. Louis, Mo.) (Hasan et al. Thrombosis and Haemostasis. 82, 1182–1187 (1999)). The thrombin clotting time (TCT) is performed by adding 0.1 ml normal human citrated plasma in the absence or presence of a peptide inhibitor and 0.05 ml of a α-thrombin solution such that the final concentration of the thrombin in the entire mixture was 1 nM. Upon addition of the thrombin, the time to clot formation is measured in an KC4A instrument (Sigma Chemical Corp, St. Louis, Mo.). In FIG. 5, peptide TH146 produces a significant prolongation (p<0.05) of the activated partial thromboplastin time at 15 μM, of the prothrombin time at 60 μM, and the thrombin clotting time at 15 μM. In FIG. 6, peptide MAP4-TH146 produced a significant prolongation (p<0.05) of the activated partial thromboplastin time at 0.195 μM, of the prothrombin time at 3.125 μM, and the thrombin clotting time at 0.39 μM.

[3] = system: PC3 cells; assay: α-thrombin-induced intracellular calcium mobilization in PC3 cells; assay type: cell-based; settings: 2 nM α-thrombin
Experimental: FIG. 13 examines the influence of MAP4-TH146 on thrombin-induced calcium mobilization in two prostate cancer cell lines that functionally express PAR 1. In Panel A, the influence of MAP4-TH146 on 2 nM α-thrombin-induced intracellular calcium mobilization in VCaP cells. Calcium flux is abolished by […]. At 6.25 μM MAP4-TH146, there is full recovery of thrombin-induced calcium flux. In Panel B, the influence of MAP4-TH146 on 2 nM α-thrombin-induced intracellular calcium mobilization in PC3 cells. Calcium flux is abolished by 200 μM MAP4-TH146. At 1.56 μM MAP4-TH146, calcium flux recovers.

[4] = system: platelets in platelet-rich plasma; assay: γ-thrombin-induced platelet aggregation in platelet-rich plasma; assay type: cell-based, human
Experimental: Fresh whole blood was collected and mixed with 0.013 M sodium citrate and platelet-rich plasma was prepared according to the method of Meloni et al., J. Biol. Chem. 266, 6786 (1991). Platelet-rich plasma with a normalized platelet count between 2–2.5×10^8 platelets/ml was added to a cuvette of an aggregometer (Chronlog Corp., Havertown, Pa.), standardized using the protocol of Meloni et al., supra. Peptides to be examined were added to the cuvette and the mixture stabilized for a few moments. Once the baseline was stabilized, γ-thrombin (10–70 nM) (Haematologic Technologies, Essex Junction, Vt.) was added to determine the minimal concentration of the agonist necessary to achieve full platelet aggregation. All investigations with peptides were performed using threshold concentrations of γ-thrombin. Aggregation was allowed to proceed for 5 minutes before stopping. When ADP-induced platelet aggregation studies were performed, 1–5 μM ADP (Sigma) was added to the cuvette containing platelet-rich plasma.

## β-Ala-Lys-2Lys-4(D-Arg-Oic-Pro-Gly-Phe) [MAP4-rOicPGF]
[1]; 0.25 nM α-thrombin
  concentrations that blocked α-thrombin-induced Ca^2+ mobilization in fibroblasts: ≥ 3.1 µM
[1]; 0.2 mM peptide, 2 nM alpha thrombin
  inhibition of calcium mobilization: 98%
[1]; 0.0016 (unit not given) peptide, 2 nM alpha thrombin
  effect on alpha thrombin-induced calcium mobilization: full recovery
[2]
  concentration giving significant prolongation of the PT: 3.125 µM
[3]; 1.56 μM peptide
  effect on thrombin-induced calcium flux: recovers
[3]; 200 μM peptide
  effect on thrombin-induced calcium flux: abolished
[4]; 40 nM γ-thrombin
  concentration that abolished γ-thrombin-induced platelet aggregation: ≥ 0.0125 mM
[4]; 0.006 mM peptide, 40 nM γ-thrombin
  effect on γ-thrombin-induced platelet aggregation: returned to pretreatment levels
[4]; 0.05 mM peptide, 40 nM γ-thrombin
  effect on γ-thrombin-induced platelet aggregation: completely abolished
[4]; minimal concentration that blocked γ-thrombin-induced platelet aggregation in platelet-rich plasma
  Concentration of Peptide [mM] That Gives 100% Inhibition: 0.019 mM
